Where two headings read alike, the source gives them in different places. Where a SMILES comes first, the peptide text is derived from it. [ ]: non-standard residue; d: D form. The star is where a group is joined. Dolaproine = CO[C@@H]([C@@H]1CCCN1)[C@@H](C)C(=O)O; Dil = CC[C@H](C)[C@H](NC)[C@@H](CC(=O)O)OC; X2 = CNc1ccc(CCN(C)[C@H](C(=O)*)C(C)C)cc1; X3 = CC(C)C(C(=O)*)N(C)CCc1ccc(C(=O)O)cc1; X1 = CC(C)[C@@H](C(=O)*)N(C)Cc1cccc(N)c1 Bounds are passed on as bounds.

The term EC50 denotes the midpoint of the concentration-response curve. Broadly, the Kd is the concentration at which binding is half-saturated.

The test system of one assay is A549 cells. Briefly: ATPlite antiproliferative assay, A549. It is filed as cell-based. The conditions noted are these: Homo sapiens. The procedure:
(§1) A549 (Non Small Cell Lung Cancer—ATCC CCL-185) and MDA-MB-231 (breast adenocarcinoma—ATCC HTB-26) cells were cultured in Minimum Essential Medium Eagle (MEM) with 5% fetal calf serum (FCS) and Dulbecco's modified Eagle Medium (DMEM) with 10% FCS respectively. MCF7 (breast ductal carcinoma—ATCC HTB-22) and SN-12C (kidney carcinoma—ATCC) cells were maintained in RPMI1640 medium (without phenol red for MCF7 cells) containing 10% FCS. All the media were supplemented with fungizone (1.25 μg/mL) and penicillin-streptomycin (100 U/100 μg/mL). Cells were cultured under standard conditions in an incubator at 37° C., 5% CO2 and 95% atmospheric humidity.
(§2) Selected drugs were investigated for their antiproliferative activity using an ATPlite proliferation assay (Perkin Elmer, Villebon sur Yvette, France) on a comprehensive panel of 4 cell lines. Cells were seeded in 96 well plates (10^3 cells/well for A549, 2.10^3 for MCF7, MDA-MB-231 and SN12C) at day 0 at a concentration to ensure cells remained in logarithmic cell growth phase throughout the 72 h drug treatment period. After a 24 h incubation period, all the cells were treated with serial dilutions of the tested compounds (11 μL of a 10× solution in 1% DMSO—6 wells/condition). To avoid adherence of the compounds onto the tips, tips were changed between two consecutive dilutions. Cells were then placed in 37° C., 5% CO2 incubator. On day 4, cell viability was evaluated by dosing the ATP released by viable cells. The number of viable cells was analyzed in comparison with the number of solvent treated cells. The EC50 values were determined with curve fitting analysis (non linear regression model with a sigmoidal dose response, variable hill slope coefficient), performed with the algorithm provided by the GraphPad Software (GraphPad Software Inc., CA, USA).
On the technique in general: Cellular ATP, detected with luciferase, serves as a proxy for viable cell number.

The subject of another assay is MDA-MB-231 cells. Description: ATPlite antiproliferative assay, MDA-MB-231. It is filed as cell-based. Conditions: Homo sapiens. The procedure:
as §1, §2

Another assay concerns lysosome functions. Description: inhibition of antibody degradation by lysosome inhibitor. It is filed as cell-based. The conditions noted are these: cells with 10 μg/ml Ab, 2 h at 37° C. How it is done:
In order to confirm that second IGF-1R antibodies Ab reached the lysosome were they are degraded, cells were treated or not with bafilomycine A1, a potent inhibitor of lysosome functions. Cells were then incubated with 10 μg/ml of Ab to be tested at 4° C., washed and incubated for 2 h at 37° C. The internalized Ab was detected after cell permeabilisation using a secondary anti-mouse IgG-Alexa 488 Ab.

In a further assay the test system is MCF7 cells. Briefly: ATPlite antiproliferative assay, MCF7. It is filed as cell-based. Conditions: Homo sapiens. How it is done:
as §1
(§3) Selected drugs were investigated for their antiproliferative activity using an ATPlite proliferation assay (Perkin Elmer, Villebon sur Yvette, France) on a comprehensive panel of 4 cell lines. […] On day 4, cell viability was evaluated by dosing the ATP released by viable cells. The number of viable cells was analyzed in comparison with the number of solvent treated cells. The EC50 values were determined with curve fitting analysis (non linear regression model with a sigmoidal dose response, variable hill slope coefficient), performed with the algorithm provided by the GraphPad Software (GraphPad Software Inc., CA, USA).

The next assay deals with SN-12C cells. Description: ATPlite antiproliferative assay, SN12C. It is filed as cell-based. Conditions: Homo sapiens. The procedure:
as §1, §3

The target in a further assay is IGF-1R (Homo sapiens, UniProt P08069). Conditions: background statement; cited from earlier work.
Where [1] appears, read: A549, comparative examples table, read-out: EC50 (M) A549.
Setting [2] is: MDA-MB-231, comparative examples table, read-out: EC50 (M) MDA-MB-231.

For the compound `CC[C@H](C)[C@@H]([C@@H](CC(=O)N1CCC[C@H]1[C@H](OC)[C@@H](C)C(=O)N[C@@H](Cc1ccccc1)C(=O)OC)OC)N(C)C(=O)[C@@H](NC(=O)C(C(C)C)N(C)CCc1ccc(C(=O)O)cc1)C(C)C` (some centres unmarked) [compound 1, reference compound] (X3-V[Dil][Dolaproine]F-OMe), the EC50 in the assay with A549 cells (setting [1]) turned out to be 3.76e-09 M; in the assay with MDA-MB-231 cells (setting [2]) it was 2.29e-09 M.
As for `CC[C@H](C)[C@@H]([C@@H](CC(=O)N1CCC[C@H]1[C@H](OC)[C@@H](C)C(=O)N[C@@H](Cc1ccccc1)C(=O)O)OC)N(C)C(=O)[C@@H](NC(=O)[C@H](C(C)C)N(C)CCc1ccc(NC)cc1)C(C)C` [Compound 13, (S)-2-((2R,3R)-3-((S)-1-((3R,4S,5S)-4-((S)—N,3-dimethyl-2-((S)-3-methyl-2-(methyl(4-(methylamino)phenethyl)amino)butanamido)butanamido)-3-methoxy-5-methylheptanoyl)pyrrolidin-2-yl)-3-methoxy-2-methylpropanamido)-3-phenylpropanoic acid, trifluoroacetic Acid] (X2-V[Dil][Dolaproine]F-OH), the EC50 in the assay with A549 cells (setting [1]) turned out to be 2.71e-08 M; in the assay on MDA-MB-231 cells (setting [2]) it was 7.95e-08 M; in the assay on MDA-MB-231 cells (MDA-MB-231, read-out: EC50) it was 7.95e-08 M.
As for `CC[C@H](C)[C@@H]([C@@H](CC(=O)N1CCC[C@H]1[C@H](OC)[C@@H](C)C(=O)N[C@@H](Cc1ccccc1)C(=O)O)OC)N(C)C(=O)[C@@H](NC(=O)C(C(C)C)N(C)CCc1ccc(C(=O)O)cc1)C(C)C` (some centres unmarked) [compound 2, reference compound] (X3-V[Dil][Dolaproine]F-OH), the EC50 with A549 cells (setting [1]) turned out to be 4.03e-07 M; in the assay with MDA-MB-231 cells (setting [2]), 9.75e-07 M.
Turning to `CO/C1=C\C(C)=C\[C@@H](C)[C@@H](O)[C@@H](C)C/C(C)=C/C=C/[C@H](OC)[C@@H]([C@@H](C)[C@@H](O)[C@H](C)[C@@]2(O)C[C@@H](O)[C@H](C)[C@@H](C(C)C)O2)OC1=O` [bafilomycine A1], the “effect on degradation of intracellular Ab” value with lysosome functions is listed as “prevented the degradation of intracellular Ab”.
As to `CC[C@H](C)[C@@H]([C@@H](CC(=O)N1CCC[C@H]1[C@H](OC)[C@@H](C)C(=O)N[C@@H](Cc1ccccc1)C(=O)OC)OC)N(C)C(=O)[C@@H](NC(=O)[C@H](C(C)C)N(C)Cc1cccc(N)c1)C(C)C` [Compound 15, methyl (S)-2-((2R,3R)-3-((S)-1-((3R,4S,5S)-4-((S)-2-((S)-2-((3-aminobenzyl) (methyl)amino)-3-methylbutanamido)-N,3-dimethylbutanamido)-3-methoxy-5-methylheptanoyl)pyrrolidin-2-yl)-3-methoxy-2-methylpropanamido)-3-phenylpropanoate, trifluoroacetic Acid] (X1-V[Dil][Dolaproine]F-OMe), the 50% effective concentration (EC50) in the assay on A549 cells (A549, 72 h drug treatment, read-out: EC50 (M) A549) is 1.45e-10 M; in the assay with A549 cells (setting [1]), 1.45e-10 M; in the assay with A549 cells (A549, text bound, read-out: EC50) it was less than 1e-07 M; in the assay with MDA-MB-231 cells (MDA-MB-231, 72 h, 72 h drug treatment, read-out: EC50 (M) MDA-MB-231), 1.7e-10 M; with MDA-MB-231 cells (MDA-MB-231, MDA-MB-231, text bound, read-out: EC50) it was less than 1e-07 M; in the assay on MDA-MB-231 cells (setting [2]), 1.7e-10 M. Besides, the concentration giving a half-maximal response (EC50) is 1.7e-10 M in the assay on MDA-MB-231 cells (MDA-MB-231, read-out: EC50); 7.15e-10 M with MCF7 cells (72 h drug treatment, read-out: EC50 (M) MCF-7); less than 1e-07 M with MCF7 cells (MCF-7, text bound, read-out: EC50); 2.18e-10 M in the assay on SN-12C cells (72 h drug treatment, read-out: EC50 (M) SN12C); less than 1e-07 M in the assay with SN-12C cells (text bound, read-out: EC50).
For `CC[C@H](C)[C@@H]([C@@H](CC(=O)N1CCC[C@H]1[C@H](OC)[C@@H](C)C(=O)N[C@@H](Cc1ccccc1)C(=O)OC)OC)N(C)C(=O)[C@@H](NC(=O)[C@H](C(C)C)N(C)CCc1ccc(NC)cc1)C(C)C` [Compound 12, methyl (S)-2-((2R,3R)-3-((S)-1-((3R,4S,5S)-4-((S)—N,3-dimethyl-2-((S)-3-methyl-2-(methyl(4-(methylamino)phenethyl)amino)butanamido)butanamido)-3-methoxy-5-methylheptanoyl)pyrrolidin-2-yl)-3-methoxy-2-methylpropanamido)-3-phenylpropanoate, trifluoroacetic Acid] (X2-V[Dil][Dolaproine]F-OMe), the EC50 in the assay on A549 cells (setting [1]) was 1.48e-10 M; in the assay with MDA-MB-231 cells (setting [2]), 5.8e-10 M; in the assay with MDA-MB-231 cells (MDA-MB-231, read-out: EC50) it was 5.8e-10 M.
As to “IGF2: insulin-like growth factor 2, ligand of IGF-1R”, the Kd with IGF-1R was roughly 1000 pM.
